# Measurements reported in patent US20070197509A1, “Compositions and methods for modulating gated ion channels” (PainCeptor Pharma Corporation, priority 2005, published 2007).
# Experiments:
# [1] = target: T1, hASIC3 (Homo sapiens, UniProt Q9UHC3); assay: FlexStation assay on HEK293 cells expressing hASIC3; type: cell-based; set-up: expressed in transfected cells; host or cells: HEK293 cells; conditions: for IC50: FlexStation (Flex), Tables A-F, read-out: Biological Data (IC50 uM) h3 (Flex); for EC50: Table H, cells marked (h3), HEK293, read-out: EC50 (μM) Flex/FLIPR (h3)
# T1 sequence (Q9UHC3 1-531): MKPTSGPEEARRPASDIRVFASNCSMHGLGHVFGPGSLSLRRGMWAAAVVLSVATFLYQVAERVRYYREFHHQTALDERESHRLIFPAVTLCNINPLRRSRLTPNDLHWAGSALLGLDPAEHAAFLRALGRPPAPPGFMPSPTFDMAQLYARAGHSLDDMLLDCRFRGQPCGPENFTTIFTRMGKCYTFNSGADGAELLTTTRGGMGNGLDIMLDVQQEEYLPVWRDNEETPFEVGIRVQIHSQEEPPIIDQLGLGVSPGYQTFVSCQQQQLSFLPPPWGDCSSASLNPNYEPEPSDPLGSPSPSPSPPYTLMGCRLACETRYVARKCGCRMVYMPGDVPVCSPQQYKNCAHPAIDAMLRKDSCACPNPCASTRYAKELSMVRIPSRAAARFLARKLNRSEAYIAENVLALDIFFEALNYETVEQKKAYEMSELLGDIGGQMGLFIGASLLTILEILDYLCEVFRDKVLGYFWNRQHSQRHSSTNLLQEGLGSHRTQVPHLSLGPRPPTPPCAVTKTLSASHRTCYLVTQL
# Procedure: A vial of FMP dye (Molecular Devices) is resuspended in 10.5 ml of assay buffer (48.3 mM NaCl, 93 mM NMDG, 5 mM KCl, 5 mM CaCl2, 1 mM MgCl2, 10 mM HEPES, pH 7.4). The culture medium is aspirated from the wells, and 100 μl of the FMP loading solution is added to each well. The cells are incubated at 37° C. for 30 min.
# After the loading period, the loading solution is left on the cells and the membrane potential-induced fluorescence is measured in FLIPR™ or FlexStation™ (Molecular Devices, USA), or any other suitable equipment known to the skilled in the art.
# For cells co-expressing ASIC1a and ASIC3 channels (e.g. HEK293 cells), membrane potential dye (FMP dye) is used and the FlexStation settings are as above.
# (§1) The MES-induced peak calcium response (or change in membrane potential), in the presence of test substance, is expressed relative to the MES response alone. Test substances that block the MES-induced calcium response (or change in membrane potential) are re-tested in triplicates. Confirmed hits are picked for further characterization by performing full dose-response curves to determine potency of each hit compound as represented by the IC50 values (i.e., the concentration of the test substance which inhibits 50% of the MES-induced calcium and/or membrane potentiation response; see, for example, FIG. 1).
# (§2) The data shown in Table H was acquired using the FlexStation assay described in Example 1 on HEK293 cells expressing hASIC3 (h3) and/or hASIC1a (h1a).
# [2] = target: T2, hASIC1a (Homo sapiens, UniProt P78348); assay: Two-electrode voltage clamp in Xenopus laevis oocytes expressing hASIC1a (OpusExpress); type: cell-based; set-up: expressed in transfected cells; host or cells: Xenopus laevis oocytes, nuclear microinjection of cDNA (e.g. in pCDNA3)
# T2 sequence (P78348 1-528): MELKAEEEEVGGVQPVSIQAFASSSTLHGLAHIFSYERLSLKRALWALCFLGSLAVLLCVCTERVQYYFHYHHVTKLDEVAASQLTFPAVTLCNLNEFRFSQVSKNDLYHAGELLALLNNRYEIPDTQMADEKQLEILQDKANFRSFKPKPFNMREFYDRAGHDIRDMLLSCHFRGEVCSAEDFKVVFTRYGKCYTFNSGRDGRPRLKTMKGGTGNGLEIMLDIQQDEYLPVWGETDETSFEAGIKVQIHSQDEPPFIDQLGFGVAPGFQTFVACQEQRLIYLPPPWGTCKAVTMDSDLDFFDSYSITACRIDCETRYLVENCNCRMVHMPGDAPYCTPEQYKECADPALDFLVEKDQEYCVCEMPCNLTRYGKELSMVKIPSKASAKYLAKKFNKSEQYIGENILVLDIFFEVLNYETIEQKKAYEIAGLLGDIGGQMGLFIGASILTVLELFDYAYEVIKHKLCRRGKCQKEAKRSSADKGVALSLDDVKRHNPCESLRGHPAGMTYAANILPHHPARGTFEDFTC
# Procedure: Two-electrode voltage clamp electrophysiological assays in Xenopus laevis oocytes expressing gated ion channels are performed as follows:
# Oocytes are surgically removed from adult Xenopus laevis and treated for 2 h at room temperature with 1 mg/ml type I collagenase (Sigma) in Barth's solution under mild agitation. Selected oocytes at stage IV-V are defolliculated manually before nuclear microinjection of 2.5-5 ng of a suitable expression vector, such as pCDNA3, comprising the nucleotide sequence encoding a gated ion channel subunit protein. In such an experiment, the oocytes express homomultimeric proton-gated ion channels on their surface. In an alternate experiment, one, two, three or more vectors comprising the coding sequences for distinct gated ion channel subunits are co-injected in the oocyte nuclei. In the latter case, oocytes express heteromultimeric proton-gated ion channels. […] Once impaled with the microelectrodes, oocytes are continuously superfused at 10-12 ml/min with a modified Ringer's solution containing 97 mM NaCl, 2 mM KCl, 1.8 mM CaCl2, and 10 mM HEPES brought to pH 7.4 with NaOH (Control Ringer). Test Ringer solution is prepared by replacing HEPES with MES and adjusting the pH to the desired acidic value. Compounds of the present invention are prepared in both the Control and Test Ringer solutions and applied to oocytes at room temperature through a computer-controlled switching valve system. […] Similarly, recordings can also be acquired in an automated multichannel oocytes system as the OpusExpress™ (Molecular Devices, Sunnyvale, Calif., USA).
# Recordings were acquired from oocytes expressing homomeric hASIC1a using a two-electrode voltage-clamp configuration procedure as described herein.
# [3] = target: T2, hASIC1a; assay: Whole-cell patch clamp of acid-induced currents in cells transfected with hASIC1a; type: cell-based; set-up: expressed in transfected cells; conditions: patch clamp (PC), Tables A-F, h1a printed in some cells only
# Procedure: Another example of an in vitro assessment method consists of using mammalian heterologous expression systems, which are known to those skilled in the art, and include a variety of mammalian cell lines such as COS, HEK, e.g., HEK293 and/or CHO, cells. Cell lines are transfected with gated ion channel(s) and used to perform electrophysiology as follows:
# All experiments are performed at room temperature (20-25° C.) in voltage clamp using conventional whole cell patch clamp methods (Neher, E., et al. (1978) Pfluegers Arch 375:219-228).
# The amplifier used is the EPC-9 (HEKA-electronics, Lambrect, Germany) run by a Macintosh G3 computer via an ITC-16 interface. Experimental conditions are set with the Pulse-software accompanying the amplifier. Data is low pass filtered and sampled directly to hard-disk at a rate of 3 times the cut-off frequency.
# Pipettes are pulled from borosilicate glass using a horizontal electrode puller (Zeitz-lnstrumente, Augsburg, Germany). The pipette resistances are 2-3 MOhms in the salt solutions used in these experiments. The pipette electrode is a chloridized silver wire, and the reference is a silver chloride pellet electrode (In Vivo Metric, Healdsburg, USA) fixed to the experimental chamber. The electrodes are zeroed with the open pipette in the bath just prior to sealing.
# Coverslips with the cells are transferred to a 15 μl experimental chamber mounted on the stage of an inverted microscope (IMT-2, Olympus) supplied with Nomarski optics. Cells are continuously superfused with extracellular saline at a rate of 2.5 ml/min. After giga-seal formation, the whole cell configuration is attained by suction. The cells are held at a holding voltage of −60 mV and at the start of each experiment the current is continuously measured for 45 s to ensure a stable baseline. Solutions of low pH (<7) are delivered to the chamber through a custom-made gravity-driven flowpipe, the tip of which is placed approximately 50 μm from the cell. Application is triggered when the tubing connected to the flowpipe is compressed by a valve controlled by the Pulse-software. Initially, low pH (in general, pH 6.5) is applied for 5 s every 60 s. The sample interval during application is 550 μs. After stable responses are obtained, the extracellular saline as well as the low-pH solution are switched to solutions containing the compound to be tested. The compound is present until responses of repeatable amplitude are achieved. Current amplitudes are measured at the peak of the responses, and effect of the compounds is calculated as the amplitude at compound equilibrium divided by the amplitude of the current evoked by the pulse just before the compound was included.
# The following salt solutions are used: extracellular solution (mM): NaCl (140), KCl (4), CaCl2 (2), MgCl2 (4), HEPES (10, pH 7.4); intracellular solution (mM): KCl (120), KOH (31), MgCl2 (1.785), EGTA (10), HEPES (10, pH 7.2). In general, compounds for testing are dissolved in 50% DMSO at 500 fold the highest concentration used.
# CHO cells were transfected with hASIC1a and used to perform full dose-inhibition curves with Compound B, and Compound R. Results are expressed as a fraction of the control peak current obtained in the absence of the test substance.
# [4] = tested on: T3, hASIC3 (h3) and/or hASIC1a (h1a); assay: FlexStation/FLIPR assay, channel not marked in the cell; type: cell-based, human; conditions: Table H, cells without channel mark; HEK293; read-out: EC50 (μM) Flex/FLIPR
# T3 construct: EC50 (μM) in one experiment; HEK293
# Excerpt: as §1, §2
# [5] = OpusExpress (OX), Tables A-F, h1a printed in some cells only, read-out: Biological Data (IC50 uM) h1a (OX)
# [6] = OpusExpress (OX), Tables A-F, h1a printed in some cells only
# [7] = Table H, read-out: IC50 (μM) Opus Express (h1a)
compound,measurement,setting,value
"O=C(O)c1cc(-c2ccc(Cl)cc2)nc2ccc(Cl)cc12 [Compound 36, 6-chloro-2-(4-chloro-phenyl)-quinoline-4-carboxylic acid]",IC50,[1],15 to 25 µM
same,IC50,[2]; [5],> 50 µM
"COc1ccc(-c2cc(C(=O)O)c3cc(Cl)ccc3n2)c(O)c1 [Compound 37, 6-chloro-2-(2-hydroxy-4-methoxy-phenyl)-acid]",IC50,[1],10 to 20 µM
"COc1ccc(N2CCN(C(=O)c3cc(-c4ccc(OC)c(OC)c4)nc4ccccc34)CC2)cc1 [Compound 41, [2-(3,4-dimethoxy-phenyl)-quinolin-4-yl]-[4-(4-methoxy-phenyl)-piperazin-1-yl]-methanone]",Biological Data (IC50 uM) h1a (OX),[2]; [6],"Not Active (OX, PC)"
same,Biological Data (IC50 uM) h1a (PC),[3],"Not Active (OX, PC)"
"COc1ccc(-c2cc(C(=O)N3CCN(Cc4ccc5c(c4)OCO5)CC3)c3cc(Cl)ccc3n2)cc1 [Compound 44, (4-benzo[1,3]dioxol-5-ylmethyl-piperazin-1-yl)-[6-chloro-2-(4-methoxy-phenyl)-quinolin-4-yl]-methanone]",Biological Data (IC50 uM) h1a (OX),[2]; [6],"Not Active (OX, PC)"
same,Biological Data (IC50 uM) h1a (PC),[3],"Not Active (OX, PC)"
"Cc1ccc(-c2nc(Nc3ccc(C(=O)O)cc3)c3cc(Cl)ccc3n2)cc1 [Compound 107, 4-(6-chloro-2-p-tolyl-quinazolin-4-ylamino)-benzoic acid]",IC50,[1],20 to 30 µM
same,IC50,[3]; read-out: Biological Data (IC50 uM) h1a (PC),> 30 µM
"Cc1cc(N2CCN(CCc3ccccc3)CC2)c2ccccc2n1 [Compound D, 2-methyl-4-(4-phenethyl-piperazin-1-yl)-quinoline]",IC50,[2]; [5],> 50 µM
same,IC50,[2]; [7],> 50 µM
same,EC50,[4],< 10 µM
"COc1ccc(-c2cc(C(=O)N3CCN(C)CC3)c3ccccc3n2)cc1OC [Compound G, [2-(3,4-dimethoxy-phenyl)-quinolin-4-yl]-(4-methyl-piperazin-1-yl)-methanone]",EC50,[4],> 20 µM
"CN1CCN(c2nc(-c3ccccc3F)nc3ccccc23)CC1 [Compound L, 2-(2-fluoro-phenyl)-4-(4-methyl-piperazin-1-yl)-quinazoline]",IC50,[1],5 to 15 µM
same,EC50,[1],> 10 µM
"Cc1cc(N2CCNCC2)c2ccccc2n1 [Compound M, 2-methyl-4-piperazin-1-yl-quinoline]",IC50,[1],5 to 15 µM
same,EC50,[1],> 10 µM
same,Biological Data (IC50 uM) h1a (OX),[2]; [6],inactive
same,IC50 (μM) Opus Express (h1a),[2]; Table H,Inactive
"Cc1cc(N2CCN(C(=O)OCc3ccccc3)CC2)c2ccccc2n1 [Compound N, 4-(2-methyl-quinolin-4-yl)-piperazine-1-carboxylic acid benzyl ester]",EC50,[1],> 20 µM
same,IC50 (μM) Opus Express (h1a),[2]; Table H,Inactive
"Cc1cc(N2CCN(CC3CCCCC3)CC2)c2ccccc2n1 [Compound O, 4-(4-cyclohexylmethyl-piperazin-1-yl)-2-methyl-quinoline]",IC50,[1],5 to 15 µM
same,IC50,[2]; [5],20 to 30 µM
same,IC50,[2]; [7],23.9 µM
same,EC50,[4],> 20 µM
Cc1cc(N2CCN(Cc3ccc4c(c3)OCO4)CC2)c2ccccc2n1 [Compound P],IC50,[1],10 to 20 µM
same,EC50,[1],> 10 µM
same,IC50,[2]; [7],> 50 µM
"FC(F)(F)c1ccc2c(OC3CCN(Cc4ccccc4)CC3)ccnc2c1 [Compound S, 4-(1-benzyl-piperidin-4-yloxy)-7-trifluoromethyl-quinoline]",IC50,[1],25 to 35 µM
same,EC50,[1],> 20 µM
"Cc1ccc(-c2nc(Nc3cccc(C(=O)O)c3)c3ccccc3n2)cc1 [Compound T, 3-(2-p-tolyl-quinazolin-4-ylamino)-benzoic acid]",EC50,[1],> 20 µM
